Measurements reported in patent US20210386367A1, “DEVICES AND SYSTEMS FOR GASTROINTESTINAL MICROBIOME DETECTION AND MANIPULATION” (Progenity, Inc., priority 2018, published 2021).
Converted amounts (≈) assume the structure as drawn. Read-outs that look alike come from different tables or passages of the source.

Columns and labels:
[1] = system: E. coli ATCC 35218; assay: Time-kill assay; type: cell-based, Escherichia coli; settings: 2×, 4×, 8× MIC; 2, 6, 24 hr
[2] = system: B. fragilis ATCC 25285; assay: Broth microdilution MIC (time-kill study); type: cell-based, Bacteroides fragilis
[3] = system: Bacteroides fragilis; assay: Agar dilution MIC, 30 clinical isolates; type: cell-based; settings: for Mode: modal MIC
[4] = system: Bacteroides spp. (B. fragilis ATCC 25285, B. vulgatus, B. ovatus MMX 3503); assay: Agar dilution MIC (spontaneous mutation study; strain in conditions); type: cell-based
[5] = system: S. pyogenes ATCC 49399; assay: Broth microdilution MIC (time-kill study); type: cell-based, Streptococcus pyogenes
[6] = system: three isolates each of E. coli, Streptococcus spp. and Bacteroides spp.; assay: Time-kill assay, overall summary; type: cell-based
Protocol: MIC values were determined by broth microdilution in accordance with guidelines from the Clinical and Laboratory Standards Institute (CLSI; (1) “Methods for Dilution Antimicrobial Susceptibility Tests for Bacteria That Grow Aerobically; Approved Standard; 11th ed.,” CLSI standard M07, 2018; (2) “Performance Standards for Antimicrobial Susceptibility Testing; 28th ed.,” CLSI supplement M100, 2018).
During the time-kill study, the test flasks were sampled at 2, 6, and 24 hr for determination of viable counts using the track dilution method as described above. Bacteroides was also sampled at 48 hr. All E. coli plates were incubated for 20-24 hr at 35° C., Streptococci for 20-24 hr at 35° C. in a CO2 incubator, and Bacteroides for approximately 48 hr at 35° C. in the anaerobe chamber. Colonies were counted manually, and the CFU/mL was determined from the average count of the duplicate plates, followed by the calculation of the log10 CFU/mL. The limit of detection for the assay was 50 CFU/mL.

[7] = system: Bacteroides spp. spontaneous mutants; assay: Broth microdilution MIC of spontaneous mutants; type: cell-based; settings: for MIC: read-out: MIC
Outline: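 Isolates from drug selection plates were subcultured on agar containing drug at the selection concentration and identified by MALDI, then MIC was determined by CLSI broth microdilution (M100-S28) with serial two-fold dilutions. Plates were pre-reduced 1 h in an anaerobic chamber; final inoculum ~1×10^6 CFU/mL.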

[8] = system: Streptococcus spp. spontaneous mutants; assay: organism not typed; type: cell-based
Outline: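 Spontaneous mutants from drug selection plates were tested by CLSI broth microdilution in MHB II with two-fold serial drug dilutions. Inoculum was about 5×10^5 CFU/mL, incubated aerobically at 35° C. for 18-20 hr. MIC was the lowest concentration inhibiting visible growth.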

[9] = system: Bacteroides non fragilis; assay: Agar dilution MIC, 29 clinical isolates; type: cell-based, Bacteroides spp.; settings: for Mode: modal MIC
[10] = Bacteroides fragilis, ATCC25285, broth microdilution, read-out: MIC
[11] = 30 Bacteroides fragilis clinical isolates
[12] = Bacteroides fragilis, read-out: MIC50
[13] = Bacteroides fragilis, read-out: MIC90
[14] = Bacteroides fragilis, ATCC25285, read-out: Agar MIC
[15] = Bacteroides ovatus, ATCC25285, read-out: Agar MIC
[16] = Phocaeicola vulgatus, ATCC 25285 / ATCC 8482, read-out: Agar MIC
[17] = over evaluated Bacteroides spp., read-out: MIC values (agar dilution)
[18] = Streptococcus pyogenes, ATCC49399, broth microdilution, read-out: MIC
[19] = B. fragilis ATCC 25285, selected on rifaximin 4X MIC, Colony A
[20] = B. fragilis ATCC 25285, selected on rifaximin 4X MIC, Colony B
[21] = B. fragilis ATCC 25285, selected on rifaximin 8X MIC, Colony A
[22] = B. fragilis ATCC 25285, selected on rifaximin 8X MIC, Colony B
[23] = B. ovatus MMX 3503, selected on rifaximin 4X MIC, Colony A
[24] = B. ovatus MMX 3503, selected on rifaximin 4X MIC, Colony B
[25] = B. ovatus MMX 3503, selected on rifaximin 8X MIC, Colony A
[26] = B. ovatus MMX 3503, selected on rifaximin 8X MIC, Colony B
[27] = B. vulgatus ATCC 8482, selected on ceftriaxone 4X MIC, Colony A
[28] = B. vulgatus ATCC 8482, selected on ceftriaxone 4X MIC, Colony B
[29] = B. vulgatus ATCC 8482, selected on rifaximin 4X MIC, Colony A
[30] = B. vulgatus ATCC 8482, selected on rifaximin 4X MIC, Colony B
[31] = B. vulgatus ATCC 8482, selected on rifaximin 8X MIC, Colony A
[32] = B. vulgatus ATCC 8482, selected on rifaximin 8X MIC, Colony B
[33] = B. vulgatus ATCC 8482 Parent (Table 50)
[34] = B. vulgatus ATCC 8482 Parent (Table 54)
[35] = S. pneumoniae ATCC 49619, selected on rifaximin 4X MIC, Colony A
[36] = S. pneumoniae ATCC 49619, selected on rifaximin 4X MIC, Colony B
[37] = S. pneumoniae ATCC 49619, selected on rifaximin 8X MIC, Colony A
[38] = S. pneumoniae ATCC 49619, selected on rifaximin 8X MIC, Colony B
[39] = S. pneumoniae ATCC 49619 Parent
[40] = S. pyogenes ATCC 49399, selected on rifaximin 4X MIC, Colony A
[41] = S. pyogenes ATCC 49399, selected on rifaximin 4X MIC, Colony B
[42] = S. pyogenes ATCC 49399, selected on rifaximin 8X MIC, Colony A
[43] = S. pyogenes ATCC 49399, selected on rifaximin 8X MIC, Colony B
[44] = Streptococcus, ATCC13813, S. agaloctiae ATCC 13813, selected on rifaximin 4X MIC, Colony A
[45] = Streptococcus, ATCC13813, S. agaloctiae ATCC 13813, selected on rifaximin 4X MIC, Colony B
[46] = Streptococcus, ATCC13813, S. agaloctiae ATCC 13813, selected on rifaximin 8X MIC, Colony A
[47] = Streptococcus, ATCC13813, S. agaloctiae ATCC 13813, selected on rifaximin 8X MIC, Colony B
[48] = Streptococcus, ATCC13813, S. agaloctiae ATCC 13813 Parent
[49] = 29 Bacteroides non-fragilis clinical isolates

C[C@@H](O)[C@H]1C(=O)N2C(C(=O)O)=C(S[C@@H]3CN[C@H](C(=O)N(C)C)C3)[C@H](C)[C@H]12 [meropenem]
time-kill kinetics outcome (bactericidal = ≥3 log reduction in CFU per mL) [1]: rapid killing and bactericidal activity at the two higher concentrations at 24 hr
MIC ([2]; B. fragilis MMX 123 ATCC 25285): 0.06 µg/mL (≈ 0.156 µM)
MIC [2, 10]: 0.06 µg/mL (≈ 0.156 µM)
isolates with intermediate resistance [3]: Twenty
relative activity among drugs tested [3]: meropenem and rifaximin had similar activity
% I [3, 11]: 20%
% S [3, 11]: 80%
MIC50 [3, 11]: 0.25 µg/mL (≈ 0.652 µM)
MIC90 [3, 11]: >8 µg/mL
MIC50 [3, 12]: 0.25 µg/mL (≈ 0.652 µM)
MIC90 [3, 13]: > 8 µg/mL
Mode [3, 11]: 0.25 µg/mL
MIC [4, 14]: 0.12 µg/mL (≈ 0.313 µM)
MIC [4, 15]: 0.12 µg/mL (≈ 0.313 µM)
MIC [4, 16]: 0.12 µg/mL (≈ 0.313 µM)
MIC [4, 17]: 0.008 to 0.12 µg/mL (≈ 0.0209 to 0.313 µM)
MIC ([5]; S. pyogenes ATCC 49399): 4 ng/mL (≈ 0.0104 µM)
MIC [5, 18]: 4 ng/mL (≈ 0.0104 µM)
overall time-kill outcome [6]: bactericidal activity
MIC [7, 19]: 0.03 µg/mL
MIC [7, 20]: 0.06 µg/mL
MIC [7, 21]: 0.06 µg/mL
MIC [7, 22]: 0.06 µg/mL
MIC ([7]; B. fragilis ATCC 25285 Parent): 0.06 µg/mL
MIC [7, 23]: 0.12 µg/mL
MIC [7, 24]: 0.12 µg/mL
MIC [7, 25]: 0.12 µg/mL
MIC [7, 26]: 0.12 µg/mL
MIC ([7]; B. ovatus MMX 3503 Parent): 0.12 µg/mL
MIC [7, 27]: 0.25 µg/mL
MIC [7, 28]: 0.25 µg/mL
MIC [7, 29]: 0.12 µg/mL
MIC [7, 30]: 0.12 µg/mL
MIC [7, 31]: 0.25 µg/mL
MIC [7, 32]: 0.12 µg/mL
MIC [7, 33]: 0.12 µg/mL
MIC [7, 34]: 0.12 µg/mL
MIC [8, 35]: 0.03 µg/mL (≈ 0.0782 µM)
MIC [8, 36]: 0.03 µg/mL (≈ 0.0782 µM)
MIC [8, 37]: 0.03 µg/mL (≈ 0.0782 µM)
MIC [8, 38]: 0.03 µg/mL (≈ 0.0782 µM)
MIC [8, 39]: 0.03 µg/mL (≈ 0.0782 µM)
MIC [8, 40]: 0.002 µg/mL (≈ 0.00522 µM)
MIC [8, 41]: 0.004 µg/mL (≈ 0.0104 µM)
MIC [8, 42]: 0.004 µg/mL (≈ 0.0104 µM)
MIC [8, 43]: 0.004 µg/mL (≈ 0.0104 µM)
MIC ([8]; S. pyogenes ATCC 49399 Parent): 0.004 µg/mL (≈ 0.0104 µM)
MIC [8, 44]: 0.015 µg/mL (≈ 0.0391 µM)
MIC [8, 45]: 0.015 µg/mL (≈ 0.0391 µM)
MIC [8, 46]: 0.015 µg/mL (≈ 0.0391 µM)
MIC [8, 47]: 0.03 µg/mL (≈ 0.0782 µM)
MIC [8, 48]: 0.008 µg/mL (≈ 0.0209 µM)
isolates with intermediate resistance [9]: Three
% I [9, 49]: 3%
% S [9, 49]: 97%
MIC50 [9, 49]: 0.5 µg/mL (≈ 1.3 µM)
MIC90 [9, 49]: 2 µg/mL (≈ 5.22 µM)
MIC50 ([9]; Bacteroides, read-out: MIC50): 0.5 µg/mL (≈ 1.3 µM)
MIC90 ([9]; Bacteroides, read-out: MIC90): 2 µg/mL (≈ 5.22 µM)
Mode [9, 49]: 0.5 µg/mL

CO/N=C(\C(=O)N[C@@H]1C(=O)N2C(C(=O)O)=C(CSc3nc(=O)c(=O)[nH]n3C)CS[C@H]12)c1csc(N)n1 [ceftriaxone]
time-kill kinetics outcome (bactericidal = ≥3 log reduction in CFU per mL) [1]: bactericidal at 24 hr at 4× and 8×MIC
MIC ([2]; B. fragilis MMX 123 ATCC 25285): 32 µg/mL (≈ 57.7 µM)
MIC [2, 10]: 32 µg/mL (≈ 57.7 µM)
isolates resistant [3]: Thirty-three
isolates with intermediate resistance [3]: 27%
% I [3, 11]: 27%
% R [3, 11]: 33%
% S [3, 11]: 40%
MIC50 [3, 11]: 32 µg/mL (≈ 57.7 µM)
MIC90 [3, 11]: >128 µg/mL
MIC range [3, 11]: 8 to 128 µg/mL
MIC50 [3, 12]: 32 µg/mL (≈ 57.7 µM)
MIC90 [3, 13]: > 128 µg/mL
Mode [3, 11]: 16 µg/mL
MIC ([4]; B. fragilis and B. ovatus isolates, read-out: initial MIC values (agar dilution)): 128 µg/mL (≈ 231 µM)
MIC [4, 14]: 128 µg/mL (≈ 231 µM)
MIC [4, 15]: 128 µg/mL (≈ 231 µM)
MIC [4, 16]: 4 µg/mL (≈ 7.21 µM)
MIC [4, 17]: 4 to 128 µg/mL (≈ 7.21 to 231 µM)
MIC ([5]; S. pyogenes ATCC 49399): 15 ng/mL (≈ 0.027 µM)
MIC [5, 18]: 15 ng/mL (≈ 0.027 µM)
overall time-kill outcome [6]: bactericidal activity
MIC [7, 19]: 16 µg/mL
MIC [7, 20]: 32 µg/mL
MIC [7, 21]: 32 µg/mL
MIC [7, 22]: 32 µg/mL
MIC ([7]; B. fragilis ATCC 25285 Parent): 32 µg/mL
MIC [7, 23]: 128 µg/mL
MIC [7, 24]: 64 µg/mL
MIC [7, 25]: > 128 µg/mL
MIC [7, 26]: 64 µg/mL
MIC ([7]; B. ovatus MMX 3503 Parent): 128 µg/mL
broth microdilution MIC higher than parent ([7]; B. vulgatus ATCC 8482, one of two isolates selected at 4× the MIC): 4 fold
MIC [7, 27]: 2 µg/mL
MIC [7, 28]: 4 µg/mL
MIC [7, 29]: 2 µg/mL
MIC [7, 30]: 1 µg/mL
MIC [7, 31]: 2 µg/mL
MIC [7, 32]: 2 µg/mL
MIC [7, 33]: 1 µg/mL
MIC [7, 34]: 1 µg/mL
MIC [8, 35]: 0.03 µg/mL (≈ 0.0541 µM)
MIC [8, 36]: 0.06 µg/mL (≈ 0.108 µM)
MIC [8, 37]: 0.03 µg/mL (≈ 0.0541 µM)
MIC [8, 38]: 0.03 µg/mL (≈ 0.0541 µM)
MIC [8, 39]: 0.06 µg/mL (≈ 0.108 µM)
MIC [8, 40]: 0.008 µg/mL (≈ 0.0144 µM)
MIC [8, 41]: 0.015 µg/mL (≈ 0.027 µM)
MIC [8, 42]: 0.015 µg/mL (≈ 0.027 µM)
MIC [8, 43]: 0.008 µg/mL (≈ 0.0144 µM)
MIC ([8]; S. pyogenes ATCC 49399 Parent): 0.015 µg/mL (≈ 0.027 µM)
MIC [8, 44]: 0.015 µg/mL (≈ 0.027 µM)
MIC [8, 45]: 0.015 µg/mL (≈ 0.027 µM)
MIC [8, 46]: 0.015 µg/mL (≈ 0.027 µM)
MIC [8, 47]: 0.06 µg/mL (≈ 0.108 µM)
MIC [8, 48]: 0.015 µg/mL (≈ 0.027 µM)
isolates resistant [9]: 72%
isolates with intermediate resistance [9]: 3%
% I [9, 49]: 3%
% R [9, 49]: 72%
% S [9, 49]: 24%
MIC50 [9, 49]: >128 µg/mL
MIC90 [9, 49]: >128 µg/mL
MIC range [9, 49]: 1 to 128 µg/mL
MIC50 ([9]; Bacteroides, read-out: MIC50): > 128 µg/mL
MIC90 ([9]; Bacteroides, read-out: MIC90): > 128 µg/mL
Mode [9, 49]: >128 µg/mL
